Where a name gives a salt, the structure may show the parent alone. Read-outs that look alike come from different tables or passages of the source. Values belong to the compound of their own block, whether it stands above or below them.
How the values were obtained:
[1] = as described in U.S. Pat. No. 8,163,904; cited from earlier work
[2] = as described in U.S. Pat. No. 8,163,904; cited from earlier work; remark: listed apart in the source
[3] = Intrinsic dissolution study in 0.1 N HCl; format: physicochemical; conditions: at 15 minutes time interval, conventional intrinsic dissolution assembly
Method: Intrinsic dissolution studies were conducted on nilotinib dihydrochloride Form X and nilotinib monohydrochloride monohydrate in 0.1 N HCl using a conventional intrinsic dissolution assembly.

[4] = Hygroscopicity; format: physicochemical

SMILES: Cc1cn(-c2cc(NC(=O)c3ccc(C)c(Nc4nccc(-c5cccnc5)n4)c3)cc(C(F)(F)F)c2)cn1 [Form B, nilotinib hydrochloride monohydrate]
hygroscopicity [1]: hygroscopic
solubility in water [2]: very slightly soluble in water

release (intrinsic dissolution) ([3]; dihydrochloride hydrate): 109%
hygroscopicity [4]: substantially non-hygroscopic
SMILES: Cc1cn(-c2cc(NC(=O)c3ccc(C)c(Nc4nccc(-c5cccnc5)n4)c3)cc(C(F)(F)F)c2)cn1 [nilotinib dihydrochloride Form X, nilotinib dihydrochloride hydrate]

release (intrinsic dissolution) ([3]; monohydrochloride monohydrate): 114%
SMILES: Cc1cn(-c2cc(NC(=O)c3ccc(C)c(Nc4nccc(-c5cccnc5)n4)c3)cc(C(F)(F)F)c2)cn1 [nilotinib monohydrochloride monohydrate]

From patent US10301282B2, “Polymorphic form X of nilotinib dihydrochloride hydrate” (Cipla Limited, priority 2015, dated 2019)
